According to patent publication US20260000710A1, “Novel Treatments for Cardiovascular Related Disease” (priority 2022, published 2026):

System: AIM+ and AIM− CD4+ T cells from peptide-expanded PBMCs
Experiment: TCRβ CDR3 sequencing (immunoSEQ) of sorted AIM+ and AIM− CD4+ T cells;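 also: genomic DNA from sorted cells as template, amplification bias-controlled two-step multiplex PCR, APOB6 pool at 10 µg/ml per peptide, CD40 blocking antibody added before restimulation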
Type: cell-based, human
Settings: for Log10 Odds Ratio: AIM+ vs AIM−
[1] = Donor 4, PBMCs expanded 14 days and restimulated 24 h with APOB6
[2] = Donor 6, PBMCs expanded 14 days and restimulated 24 h with APOB6
[3] = Donor 2, PBMCs expanded 14 days and restimulated 24 h with APOB6
[4] = Donor 5, PBMCs expanded 14 days and restimulated 24 h with APOB6
[5] = Donor 1, PBMCs expanded 14 days and restimulated 24 h with APOB6
[6] = Donor 3, PBMCs expanded 14 days and restimulated 24 h with APOB6

Experimental: To examine the clonotypic identities of autoreactive CD4^+ T cells, the hypervariable TCRβ DR3 region was sequenced using a DNA-based sequencing technique^42 (Adaptive Biotechnologies), which have been used to profile clonal populations of other self-antigen specific T cells^43. PBMCs from six HLA-typed donors (demographics and HLA-II alleles in Tables 5, 6) were expanded (14-days) and restimulated (24 h) with the APOB6 pool. To isolate viable responder and non-responder CD4^+ T cells from the same pool of stimulated PBMCs (schematic in FIG. 15A, gating strategy in FIG. 151B), the inventors used the AIM assay protocol (FIGS. 2A to 2D).
As a second control, unexpanded PBMCs (day 0 samples), sorted into naïve, central memory (TCM) and effector memory (TEM) CD4^+ T cells, were used (gating strategy in FIG. 15C). This allowed tracing the APOB6-specific AIM^+ T cell clones in naïve and memory T cell lineages. Genomic DNA, isolated from sorted AIM^− and AIM^+ Day 14 samples and naïve, TCM and TEM Day 0 samples from six donors, was used as the starting material for TCRVβ sequencing (schematic in FIG. 15A) using an optimized two-step, amplification bias-controlled multiplex-PCR-based approach^42,44 (immunoSEQ Human TCRB Assay, Adaptive Biotechnologies).
For isolation of APOB epitope-specific CD4^+ T cells, PBMCs were expanded with the APOB6pool (10 μg/ml per peptide). On Day 14, cultured cells were washed and re-stimulated with APOB6 (10 μg/ml) for 24 h (AIM assay protocol). 1 μg/ml of CD40 blocking antibody was added 15 min before stimulation. At the end of the stimulation period, cells were washed with FACS buffer (PBS w/o Ca/Mg, 2% FCS). Day 14 (APOB6 expanded and restimulated) and Day 0 (ex vivo samples with no in vitro stimulation) PBMC samples from six donors were resuspended in a staining master mix containing anti-human Fc-Block (Biolegend), fixable viability dye and antibodies against T cell and non-T cell (Dump) surface markers, activation markers and memory markers (antibody details in Table 4). Viability dye was used at 1:1000 dilution, antibodies were used at a final dilution of 1:100 (activation markers) and 1:200 (other extracellular markers). […] Gates were set based on unstimulated and PHA-L stimulated negative and positive controls, respectively. Antigen-specific AIM^+ and non-specific control AIM^− CD4^+ T cells from Day 14 samples and naïve (CD45RA^+CCR7^+), central memory (CD45RA^−CCR7^+, TCM) and effector memory (CD45RA^−CCR7^−, TEM) CD4^+ T cells from Day 0 PBMCs were sorted into HEPES-containing buffer (PBS with 2% FBS and 0.025 M HEPES) using BD FACSAria flow cytometry sorters. Acquired data was analyzed with FlowJo software.
Genomic DNA was extracted from sorted cells using QIAamp DNA Micro Kit (QIAGEN) and sent to Adaptive Biotechnologies for survey-level TCRβ sequencing (depth ˜60,000 reads) using their established immunoSEQ platform^7. Briefly, highly variable CDR3 regions on somatically rearranged human TCRβ chains were amplified with a two-step multiplex PCR approach using optimized set of primers that target the VDJ region spanning each unique CDR3B. A synthetic repertoire containing all possible V/J templates is used as a built-in control to quantify and correct PCR amplification biases. Processing of raw Illumina sequence reads, filtering, demultiplexing, clustering and mapping of CDR3 sequences and annotation of VDJ genes using IMGT database sequences were performed at Adaptive Biotechnologies and made available for download and analysis.

CASSYRQTNQPQHF: TCRβ CDR3 clone, TCRBV06-02/06-03+TCRBJ01-05, Donor 4
Log10 Odds Ratio (Donor 4): 12.14 | No. of clone-specific productive templates, AIM+ CD4+ T (Total 25796) [1]: 509 | No. of clone-specific productive templates, AIM− CD4+ T (Total 25928) [1]: 0

CATSEGGRGRGPGELFF: TCRβ CDR3 clone, TCRBV24-01+TCRBJ02-02, Donor 6
Log10 Odds Ratio (Donor 6): 2.58 | No. of clone-specific productive templates, AIM+ CD4+ T (Total 34927) [2]: 292 | No. of clone-specific productive templates, AIM− CD4+ T (Total 45364) [2]: 1

CASSISLALIYEQYF: TCRβ CDR3 clone, TCRBV19-01+TCRBJ02-07, Donor 6
Log10 Odds Ratio (Donor 6): 2.09 | No. of clone-specific productive templates, AIM+ CD4+ T (Total 34927) [2]: 371 | No. of clone-specific productive templates, AIM− CD4+ T (Total 45364) [2]: 4

CASSSLTPEAYGYTF: TCRβ CDR3 clone, TCRBV28-01+TCRBJ01-02, Donor 2
Log10 Odds Ratio (Donor 2): 2.21 | No. of clone-specific productive templates, AIM+ CD4+ T (Total 18591) [3]: 796 | No. of clone-specific productive templates, AIM− CD4+ T (Total 7206) [3]: 2

CASSPGREPGNTIYF: TCRβ CDR3 clone, TCRBV07-09+TCRBJ01-03, Donor 5
Log10 Odds Ratio (Donor 5): 0.57 | No. of clone-specific productive templates, AIM+ CD4+ T (Total 31354) [4]: 422 | No. of clone-specific productive templates, AIM− CD4+ T (Total 48987) [4]: 179

CASSTTGLAAYNEQFF: TCRβ CDR3 clone, TCRBV19-01+TCRBJ02-01, Donor 1
Log10 Odds Ratio (Donor 1): 1.97 | No. of clone-specific productive templates, AIM+ CD4+ T (Total 21697) [5]: 519 | No. of clone-specific productive templates, AIM− CD4+ T (Total 49956) [5]: 13

CASSYGGGPPDTQYF: TCRβ CDR3 clone, TCRBV06-06+TCRBJ02-03, Donor 5
Log10 Odds Ratio (Donor 5): 2.34 | No. of clone-specific productive templates, AIM+ CD4+ T (Total 31354) [4]: 810 | No. of clone-specific productive templates, AIM− CD4+ T (Total 48987) [4]: 6

CASSPDFSGANVLTF: TCRβ CDR3 clone, TCRBV05-06+TCRBJ02-06, Donor 6
Log10 Odds Ratio (Donor 6): 2.17 | No. of clone-specific productive templates, AIM+ CD4+ T (Total 34927) [2]: 339 | No. of clone-specific productive templates, AIM− CD4+ T (Total 45364) [2]: 3

CASSLTRIPEQYF: TCRβ CDR3 clone, TCRBV28-01+TCRBJ02-07, Donor 1
Log10 Odds Ratio (Donor 1): 0.90 | No. of clone-specific productive templates, AIM+ CD4+ T (Total 21697) [5]: 459 | No. of clone-specific productive templates, AIM− CD4+ T (Total 49956) [5]: 136

CSAREGALDNSPLHF: TCRβ CDR3 clone, TCRBV20-X+TCRBJ01-06, Donor 5
Log10 Odds Ratio (Donor 5): 2.33 | No. of clone-specific productive templates, AIM+ CD4+ T (Total 31354) [4]: 537 | No. of clone-specific productive templates, AIM− CD4+ T (Total 48987) [4]: 4

CATSEPGPLNQPQHF: TCRβ CDR3 clone, TCRBV24-01+TCRBJ01-05, Donor 3
Log10 Odds Ratio (Donor 3): 1.62 | No. of clone-specific productive templates, AIM+ CD4+ T (Total 16700) [6]: 348 | No. of clone-specific productive templates, AIM− CD4+ T (Total 21770) [6]: 11

CSASRTYDNQPQHF: TCRβ CDR3 clone, TCRBV20-01+TCRBJ01-05, Donor 2
Log10 Odds Ratio (Donor 2): 11.96 | No. of clone-specific productive templates, AIM+ CD4+ T (Total 18591) [3]: 326 | No. of clone-specific productive templates, AIM− CD4+ T (Total 7206) [3]: 0

CSARWYNEQFF: TCRβ CDR3 clone, TCRBV20-01+TCRBJ02-01, Donor 3
Log10 Odds Ratio (Donor 3): 1.82 | No. of clone-specific productive templates, AIM+ CD4+ T (Total 16700) [6]: 349 | No. of clone-specific productive templates, AIM− CD4+ T (Total 21770) [6]: 7

CASSQEVGGDHGYTF: TCRβ CDR3 clone, TCRBV04-03+TCRBJ01-02, Donor 3
Log10 Odds Ratio (Donor 3): 2.41 | No. of clone-specific productive templates, AIM+ CD4+ T (Total 16700) [6]: 759 | No. of clone-specific productive templates, AIM− CD4+ T (Total 21770) [6]: 4

CASSLPRDRDYGYTF: TCRβ CDR3 clone, TCRBV06-02+TCRBJ01-02, Donor 3
Log10 Odds Ratio (Donor 3): 2.55 | No. of clone-specific productive templates, AIM+ CD4+ T (Total 16700) [6]: 269 | No. of clone-specific productive templates, AIM− CD4+ T (Total 21770) [6]: 1

CSAMSPSGTGELFF: TCRβ CDR3 clone, TCRBV20-X+TCRBJ02-02, Donor 2
Log10 Odds Ratio (Donor 2): 12.19 | No. of clone-specific productive templates, AIM+ CD4+ T (Total 18591) [3]: 549 | No. of clone-specific productive templates, AIM− CD4+ T (Total 7206) [3]: 0

CASSQTGQGYNEQFF: TCRβ CDR3 clone, TCRBV23-01+TCRBJ02-01, Donor 6
Log10 Odds Ratio (Donor 6): 1.49 | No. of clone-specific productive templates, AIM+ CD4+ T (Total 34927) [2]: 308 | No. of clone-specific productive templates, AIM− CD4+ T (Total 45364) [2]: 13

CATSQGVGSGANVLTF: TCRβ CDR3 clone, TCRBV15-01+TCRBJ02-06, Donor 6
Log10 Odds Ratio (Donor 6): 2.24 | No. of clone-specific productive templates, AIM+ CD4+ T (Total 34927) [2]: 649 | No. of clone-specific productive templates, AIM− CD4+ T (Total 45364) [2]: 5

CASSFTYDEQFF: TCRβ CDR3 clone, TCRBV07-09+TCRBJ02-01, Donor 5
Log10 Odds Ratio (Donor 5): 1.66 | No. of clone-specific productive templates, AIM+ CD4+ T (Total 31354) [4]: 457 | No. of clone-specific productive templates, AIM− CD4+ T (Total 48987) [4]: 16

CATSDFGKEGDEKLFF: TCRβ CDR3 clone, TCRBV24-01+TCRBJ01-04, Donor 5
Log10 Odds Ratio (Donor 5): 2.61 | No. of clone-specific productive templates, AIM+ CD4+ T (Total 31354) [4]: 518 | No. of clone-specific productive templates, AIM− CD4+ T (Total 48987) [4]: 2
